Assay results reported in PMC12040169 (PLOS Biology, 2025).

Assay: in vitro
Conditions: human, hela cells, % viability

Row | SMILES | viability at 28.5 h, 10 µM [%]
1 | O=C1CN(C(=O)c2cc(-c3ccncc3)nc3ccccc23)CCN1 [CBK304370] | 104
2 | Cc1cccc(C)c1NC(=O)CN1CCC(Oc2cncc(OCC3COc4ccccc4O3)n2)C1 (centres unmarked) [CBK084373] | 98.5
3 | NC(=O)c1c(NC(=O)COc2ccc3ccccc3c2)sc2c1CCCCC2 [CBK265380] | 112
4 | CC(=O)Nc1ccc(/C(C)=N/Nc2nc(N3CCCC3)nc(N3CCCC3)n2)cc1 [CBK021877] | 89.3
5 | Oc1ccccc1Sc1cnccn1 [CBK085840] | 104
6 | O=C(O)c1ccc(C(=O)c2c3c(=O)n(-c4ccccc4C(=O)O)c(=O)c3cc3c(=O)n(-c4ccccc4C(=O)O)c(=O)c23)cc1 [CBK261183] | 91.7
7 | c1cncc(CCNc2nccnc2-c2cccnc2)c1 [CBK037380] | 93
8 | O=C(Cc1ccc(Cl)cc1)Nc1ccc(Oc2ccc3c(c2)C(=O)NC3=O)cc1 [CBK265869] | 87.8
9 | COc1ccc(N2CCN(CC(=O)N3c4ccccc4Sc4ccccc43)CC2)cc1 [CBK269398] | 89.1
10 | Cc1noc2nc(C3CCN(C(=O)C4CC4)CC3)cc(C(F)F)c12 [CBK285306] | 95.8
11 | COc1ccc(N2C(=O)CC(Nc3cc(C(=O)O)ccc3C)C2=O)c(OC)c1 (centres unmarked) [CBK296650] | 114
12 | COc1ccc(-c2cc(C(=O)NCc3cc(Cl)cc(Cl)c3)cnc2-c2ccc(Cl)cc2)cn1 [CBK037431] | 88.8
13 | Cc1ccc(NC(=O)c2cccnc2)c(C(=O)O)c1 [CBK000177] | 103
14 | CC(C)CC(=O)NCCn1nc(-c2cccs2)oc1=O [CBK282342] | 114
15 | O=S(=O)(c1ccc(F)cc1)N1CCCC1c1cccc(Cc2ccc(F)cc2)n1 (centres unmarked) [CBK286249] | 88
16 | Cc1cc(C)nc(N2CCC(c3cc(CCOc4cccc(C(F)(F)F)c4)[nH]n3)C2)n1 (centres unmarked) [CBK285568] | 78.7
17 | Cc1ccn(CCNCc2cc(-c3ccc(Cl)cc3)c[nH]c2=O)n1 [CBK284727] | 88.4
18 | CC(C)(C)c1cc(CC2(NCc3ccco3)COC2)no1 [CBK289642] | 108
19 | O=C(Nc1ccc(F)cc1)c1ccc(NS(=O)(=O)Cc2ccccc2[N+](=O)[O-])cc1 [CBK050405] | 93
20 | Fc1ccccc1CN1CCN(Cc2ccccn2)CC1 [CBK265194G] | 100
21 | COc1ccc(CCNc2nc3c([nH]2)c(=O)n(C)c(=O)n3C)cc1 [CBK269897] | 85.5
22 | CS(=O)(=O)c1nnn(CC#N)n1 [CBK026075] | 90
23 | Cc1cn2c(=O)c3ncn([C@H]4C[C@@H](O)[C@@H](CO)O4)c3nc2[nH]1 [CBK201320] | 86.6

Row | SMILES | viability at 28.5 h, 10 µM [%]
24 | C/C(=N\NC(N)=S)C(=O)O [CBK261575] | 102
25 | Cc1nn(Cc2cccc(C(N)=O)c2)c(C)c1Br [CBK022255] | 86.9
26 | O=C1COc2ccccc2C/C=C/CC2(CCN(C(=O)c3n[nH]c4c3CCC4)CC2)CN1 [CBK292019] | 111
27 | CN1CCN(C(=S)SCc2nc(N)nc(Nc3ccc(F)cc3)n2)CC1 [CBK265230] | 81.4
28 | COC(=O)c1ccsc1NS(=O)(=O)c1cc(Br)ccc1OC [CBK039065] | 86.8
29 | c1ccc2[nH]c(CN3CCC[C@@H]3CN3CCCC3)nc2c1 [CBK149102] | 85.9
30 | Cc1ccc(-c2oncc2C(=O)NCc2cccs2)cc1 [CBK153679] | 95.7
31 | CC(NC(=O)N1CCSCC1)c1cccc(N2CCCC2)c1 (centres unmarked) [CBK305230] | 92
32 | CC(=O)N1CCc2c([nH]c3ccccc23)[C@@]12CCN(Cc1ccc(F)cc1)C2 [CBK074955] | 83
33 | CCn1cc(CN2CCC(O)(c3ccc(C)cc3)CC2)cn1 [CBK282735] | 85.7
34 | O=C(NCCn1nc(-c2ccco2)ccc1=O)C1CCCC1 [CBK283707] | 92
35 | COc1cc(CO)c(-c2c[nH][nH]c2=O)cc1OC [CBK009476] | 85.5
36 | O=C(Cc1ccsc1)Nc1snnc1-c1ccc(Cl)cc1 [CBK153243] | 94.5
37 | CCOC(=O)C1(C2CCCCC2)CCN(C(=O)CC2CCCCC2)CC1 [CBK136919] | 96.2
38 | c1ccc(-c2ccc(-c3cc(N4CCN(CCN5CCCC5)CC4)ncn3)cc2)cc1 [CBK091165] | 99
39 | CCCN(CC1CCCO1)C(=O)c1cnn(-c2ccc(F)cc2)c1 (centres unmarked) [CBK283317] | 89.7
40 | O=C(NC1CC1)[C@@H]1C=CCN1C(=O)Nc1ccccc1C(F)(F)F [CBK284276] | 98.1
41 | O=C(CSc1ncc(C(=O)O)n1-c1ccc(F)cc1)NCCc1ccc(F)cc1 [CBK297513] | 93.3
42 | O=C(O)C1CC(=O)N(Cc2ccccc2)C1c1ccccc1 (centres unmarked) [CBK286876] | 89.1
43 | COC(=O)c1cc(OC)c(OC)cc1NC(=S)N1CCC(C(N)=O)CC1 [CBK268507] | 93.3
44 | COc1ccc(C(=O)Nc2ccc(S(=O)(=O)N3CCN(C)CC3)cc2)cc1 [CBK267622] | 92.8
45 | COc1cccc2cc(C(=O)N3CCN(C4CCN(C)CC4)CC3)oc12 [CBK149086] | 91.2
46 | CC(C)C[C@H](NC(=O)OC(C)(C)C)C(=O)NC[C@H]1CC[C@H](C(=O)O)CC1 [CBK286750] | 85.9

Row | SMILES | viability at 28.5 h, 10 µM [%]
47 | O=CN1CCc2c([nH]c3cc(F)ccc23)C12CCN(CCc1ccc3c(c1)OCO3)CC2 [CBK039614] | 86.5
48 | CC(C)CN1CCC(NC(=O)c2csc(-c3cnn(C)c3)n2)CC1 [CBK305790] | 97.2
49 | CCCc1n[nH]c(O)c1Cc1ccc(OCCCN(C)C)cc1 [CBK116249A] | 93.1
50 | CCC1CCCCN1C(=O)c1cccs1 (centres unmarked) [CBK074214] | 104
51 | CCc1c(C)sc(NC(=O)C2CCC2)c1C(=O)NCc1cccnc1 [CBK307414] | 115
52 | O=C(Nc1cccnc1)C1c2ccccc2Oc2ccccc21 [CBK263129] | 98.6
53 | N#Cc1c(C(F)(F)F)cc(-c2ccncc2)nc1SCCN1CCCCCC1 [CBK267451] | 85.3
54 | OCCCNc1nccnc1-c1ccco1 [CBK037346] | 99.2
55 | O=C(O)CCSc1nc2ccccc2n1-c1ccccc1 [CBK264215] | 100
56 | CCn1c(CN[C@@H]2CCC[C@H]2Cc2cc(C)no2)cnc1SC [CBK282965] | 96.6
57 | Cc1c(NC(=O)c2ccc3c(c2)C(=O)N(Cc2ccco2)C3=O)cccc1C(=O)O [CBK268627] | 92.9
58 | O=C(NCC(O)c1ccccc1)Nc1ccccc1 (centres unmarked) [CBK057227] | 95.2
59 | Cc1cc(C)c2[nH]c(C)c(CC(=O)N(C)CCN(C)C)c2c1 [CBK282731] | 82.5
60 | O=C(O)c1ccccc1SC1CC(=O)N(c2ccccc2)C1=O (centres unmarked) [CBK273885] | 94.6
61 | O=C(CN1CCN(S(=O)(=O)c2ccc(F)cc2)CC1)Nc1cccc(C(F)(F)F)c1 [CBK071925] | 92.7
62 | CC(C)(C)OC(=O)N(c1cncc(N2CCNCC2)n1)[C@@H]1CCOc2ccccc21 [CBK172251G] | 109
63 | NC(=O)c1cccc(-c2nccnc2N2CCN(CCO)CC2)c1 [CBK036726] | 96.9
64 | O=C(OCC#CCSc1nnc(-c2ccncc2)o1)c1sc2ccccc2c1Cl [CBK265677] | 94.6
65 | O=C(CC1S/C(=N/N=C/c2ccccc2C(=O)O)NC1=O)Nc1ccccc1 (centres unmarked) [CBK264515] | 99.7
66 | NS(=O)(=O)c1ccc(N/C(S)=N\c2cccc(C(=O)O)c2)cc1 [CBK266880] | 103
67 | CC1CCc2c(C(=O)Nc3ncc(Cc4ccccc4)s3)csc2C1 (centres unmarked) [CBK300531] | 94.6
68 | Cn1nnnc1SCCNC(=O)Nc1cccc(N2CCOC2=O)c1 [CBK306593] | 84.4
69 | Nc1nc2c3c(c(-c4ccccc4)nc2[nH]1)CCCC3 [CBK020648] | 78.2

Row | SMILES | viability at 28.5 h, 10 µM [%]
70 | CC(=O)Nc1ccc(Oc2c(F)c(F)c(/C=C/CN3CCOCC3)c(F)c2F)cc1 [CBK269302C] | 89
71 | O=C(O)C1C2CCC(O2)C1C(=O)N1CCN(Cc2ccc(Cl)cc2)CC1 (centres unmarked) [CBK286943] | 97.5
72 | Cc1ccc(S(=O)(=O)NC(C)C(=O)Nc2cc(-c3nc4ccccc4[nH]3)ccc2C)cc1 (centres unmarked) [CBK110320] | 96.2
73 | N#Cc1[nH]nnc1-c1ccc(OC(F)(F)F)cc1 [CBK017386] | 95.1
74 | CCc1ccc(CCC(=O)N2CCN(S(=O)(=O)c3sc(C(=O)O)c(C)c3C(=O)O)CC2)cc1 [CBK297138] | 111
75 | COCCn1nc(C(=O)N(C)Cc2nc3ccccc3s2)ccc1=O [CBK305338] | 91.8
76 | O=C(c1cccc(S(=O)(=O)Nc2ccc(Br)cc2)c1)N1CCCC1 [CBK296709] | 67.4
77 | COCCOc1ccc(C(=O)N2CCN(c3ccccc3)CC2)cc1 [CBK304626] | 106
78 | CC(C(=O)N1CCC(c2cc3cccnc3[nH]2)CC1)N1CCCC1=O (centres unmarked) [CBK282705] | 105
79 | Nn1c(CSc2ccccn2)nnc1CSc1ccccn1 [CBK266987] | 90.8
80 | CN(C)CCCNC(=O)c1ccc(/C=N/O)nc1 [CBK288489] | 121
81 | Cc1cc(COc2nc3ccccc3nc2NCCC(C)O)no1 (centres unmarked) [CBK173999] | 95.7
82 | CS(=O)(=O)c1ccc(-n2nnnc2CN2CCC3(CCCC3)C2)cc1 [CBK306178] | 89.4
83 | O=C(Nc1cccnc1)N1CCCCC1CO (centres unmarked) [CBK155990] | 96.9
84 | Cc1ccc([N+](=O)[O-])cc1S(=O)(=O)Nc1ccc(O)c(Sc2nc3ccccc3s2)c1 [CBK266936] | 97.6
85 | COc1ccc(C(=O)Nc2ccccc2-c2nc3ccccc3s2)cc1OC [CBK266376] | 93.9
86 | CC(C)C(=O)N1C[C@H]2CCc3nnc(-c4ccccc4)n3[C@H]2C1 [CBK283438] | 88
87 | CC(C)[C@@]1(C)SC(N[C@H]2C[C@H]3C[C@@H]2C[C@@H]3O)=NC1=O [CBK138400] | 102
88 | CCOc1ccc(-c2nc(-c3cccc(NC(=O)c4ccccc4C(=O)O)c3)no2)cc1 [CBK299832] | 85.2
89 | Nc1nc(SCc2cccc([N+](=O)[O-])c2)n[nH]1 [CBK268688] | 105
